Measured values published in ChEMBL document CHEMBL1147519, “N-[18F]fluoroethylpiperidin-4-ylmethyl butyrate: a novel radiotracer for quantifying brain butyrylcholinesterase activity by positron emission tomography” (Bioorg Med Chem Lett, 2004).

What was measured:
[1] = Partition coefficient (logD) (octanol/phosphate buffer); type: physicochemical
[2] = Partition coefficient (logD); type: physicochemical; details: octanol/water
Homo sapiens = species: Homo sapiens; experiment: The estimated hydrolysis rate in the human cerebral cortex; type: functional
[3] = target: Cholinesterase (Homo sapiens) (UniProt P06276); experiment: Specificity to butyrylcholinesterase
Cholinesterase (Homo sapiens), sequence (P06276 whole entry): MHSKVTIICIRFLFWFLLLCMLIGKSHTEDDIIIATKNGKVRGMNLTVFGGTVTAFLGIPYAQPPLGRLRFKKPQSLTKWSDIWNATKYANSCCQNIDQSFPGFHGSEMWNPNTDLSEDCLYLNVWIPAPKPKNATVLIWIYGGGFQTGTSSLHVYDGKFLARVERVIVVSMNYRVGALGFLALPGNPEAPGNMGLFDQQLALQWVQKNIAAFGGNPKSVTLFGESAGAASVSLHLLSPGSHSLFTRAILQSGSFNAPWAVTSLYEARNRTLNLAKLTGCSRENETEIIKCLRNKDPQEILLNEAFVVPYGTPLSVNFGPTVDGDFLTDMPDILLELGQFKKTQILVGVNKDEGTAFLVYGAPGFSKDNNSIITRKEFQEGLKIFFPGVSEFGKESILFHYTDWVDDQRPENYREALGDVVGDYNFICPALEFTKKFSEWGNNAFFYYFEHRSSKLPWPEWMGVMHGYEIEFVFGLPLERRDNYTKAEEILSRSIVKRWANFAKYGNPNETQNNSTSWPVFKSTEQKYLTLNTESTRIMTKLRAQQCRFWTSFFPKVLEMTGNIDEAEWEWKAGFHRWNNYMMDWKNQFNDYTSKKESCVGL

For `CC(=O)OC1CCN(C)CC1`, the logD [1] was -2.2, the logD [2] was -0.3 and the Total rate (Homo sapiens) was 0.16 g⁻¹ min⁻¹ mL⁻¹.
Compound `CCCC(=O)OC1CCN(C)CC1` has a Specificity [3] of 98%, a logD [1] of -2.2 and a logD [2] of 0.21. The Total rate (Homo sapiens) was 0.033 g⁻¹ min⁻¹ mL⁻¹.
With `CCC(=O)OC1CCN(C)CC1` the logD [1] was -2.2, the logD [2] was -0.22 and the Total rate (Homo sapiens) was 0.035 g⁻¹ min⁻¹ mL⁻¹.
With `CCCC(=O)OCC1CCN(CCF)CC1` the Specificity [3] was 98%, the logD [1] was -1.3 and the logD [2] was 0.62. For the same compound, the Total rate (Homo sapiens) was 0.2 g⁻¹ min⁻¹ mL⁻¹.
